Test results from patent publication US6369088B2, “Substituted 3-phenyl-5-alkoxy-1,3,4-oxadiazol-2-ones, their preparation and their use as pharmaceuticals” (Aventis Pharma Deutschland GmbH, priority 2000, dated 2002).

What was measured:
[1] = target: T1, hormone-sensitive lipase (HSL) (Rattus norvegicus, UniProt P15304); assay: HSL enzyme assay: [3H]trioleoylglycerol hydrolysis by partially purified HSL; format: biochemical; conditions: partially purified HSL from rat fat cells; [3H]trioleoylglycerol substrate; 37° C., 30 min; read-out: IC50
T1 construct: Isolated rat fat cells were obtained from epididymal adipose tissue; from tissue; host or cells: rat epididymal adipose tissue (isolated fat cells, Wistar rats)
T1 sequence (P15304 1-768 isoform P15304-2): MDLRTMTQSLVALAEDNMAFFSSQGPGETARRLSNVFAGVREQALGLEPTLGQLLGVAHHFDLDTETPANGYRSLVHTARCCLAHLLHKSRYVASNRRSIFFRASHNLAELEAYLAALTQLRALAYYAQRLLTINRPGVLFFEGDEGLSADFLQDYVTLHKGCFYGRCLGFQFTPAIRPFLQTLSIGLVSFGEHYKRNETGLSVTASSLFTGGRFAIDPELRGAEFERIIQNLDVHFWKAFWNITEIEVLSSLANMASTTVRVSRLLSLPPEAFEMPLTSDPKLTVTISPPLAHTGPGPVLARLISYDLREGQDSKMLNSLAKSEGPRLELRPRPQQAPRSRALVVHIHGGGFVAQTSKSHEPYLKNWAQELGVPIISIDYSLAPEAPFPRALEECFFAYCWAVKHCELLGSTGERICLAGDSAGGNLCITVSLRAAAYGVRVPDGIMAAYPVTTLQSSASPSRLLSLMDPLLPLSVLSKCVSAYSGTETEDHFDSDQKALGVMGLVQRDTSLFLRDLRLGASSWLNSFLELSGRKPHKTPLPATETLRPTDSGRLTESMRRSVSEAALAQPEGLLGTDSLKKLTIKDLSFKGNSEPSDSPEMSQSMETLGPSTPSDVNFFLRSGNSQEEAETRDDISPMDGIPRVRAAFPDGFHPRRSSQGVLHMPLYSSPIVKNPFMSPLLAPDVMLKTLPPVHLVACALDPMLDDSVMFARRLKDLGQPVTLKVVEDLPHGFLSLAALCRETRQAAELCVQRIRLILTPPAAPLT
Description: The effect of the compounds of the invention on HSL was tested using the following enzyme assay system:
Preparation of Partially Purified HSL:
The fat cells from 10 rats were washed three times by flotation with 50 ml each time of homogenization buffer ([…] tris/HCl, pH 7.4, 0.25 M sucrose, 1 mM EDTA, 1 mM DTT, 10 μg/ml leupeptin, 10 μg/ml antipain, 20 μg/ml pepstatin) and finally taken up in 10 ml of homogenization buffer. The fat cells were homogenized in a Teflon-in-glass homogenizer (Braun-Melsungen) by 10 strokes at 1500 rpm and 15° C. The homogenate was centrifuged (Sorvall SM24 tubes, 5000 rpm, 10 min, 4° C.). The subnatant between the fatty layer at the top and the pellet was removed and the centrifugation was repeated. The subnatant resulting therefrom was recentrifuged (Sorvall SM24 tubes, 20000 rpm, 45 min, 4° C.). […] After the mixture had been incubated at 4° C. for 60 min (shaking at 15-min intervals), it was centrifuged (Sorvall SM24 tubes, 3000 rpm, 10 min, 4° C.). The supernatant was adjusted to pH 5.2 by adding glacial acetic acid and incubated at 4° C. for 30 min. The precipitates were collected by centrifugation (Sorvall SS34, 12000 rpm, 10 min, 4° C.) and suspended in 2.5 ml of 20 mM tris/HCl, pH 7.0,1 mM EDTA, 65 mM NaCl, 13% sucrose, 1 mM DTT, 10 μg/ml leupeptin/pepstatin/antipain. The suspension was dialyzed against 25 mM tris/HCl, pH 7.4, 50% glycerol, 1 mM DTT, 10 μg/ml leupeptin, pepstatin, antipain at 4° C. overnight and then loaded onto a hydroxy apatite column (0.1 g per 1 ml of suspension, equilibrated with 10 mM potassium phosphate, pH 7.0, 30% glycerol, 1 mM DTT). The column was washed with four volumes of equilibration buffer at a flow rate of 20 to 30 ml/h. The HSL was eluted with one volume of equilibration buffer containing 0.5 M potassium phosphate, and then dialyzed (see above) and concentrated 5- to 10-fold by ultrafiltration (Amicon Diaflo PM 10 filter) at 4° C. The partially purified HSL can be stored at −70° C. for 4 to 6 weeks.
To prepare the substrate, 25-50 μCi of [^3H]trioleoylglycerol (in toluene), 6.8 μmol of unlabeled trioleoylglycerol and 0.6 mg of phospholipids (phosphatidylcholine/phosphatidylinositol 3:1 w/v) were mixed, dried with N2 and then taken up in 2 ml of 0.1 M KPi (pH 7.0) by ultrasonic treatment (Branson 250, microtip, setting 1-2, 2×1 min at 1-min intervals). After addition of 1 ml of KPi and renewed ultrasonic treatment (4×30 sec on ice in 30-sec intervals), 1 ml of 20% BSA (in KPi) was added (final concentration of trioleoylglycerol 1.7 mM). For the reaction, 100 μl of substrate solution were pipetted into 100 μl of HSL solution (HSL prepared as above, diluted in 20 mM KPi, pH 7.0, 1 mM EDTA, 1 mM DTT, 0.02% BSA, 20 μg/ml pepstatin, 10 μg/ml leupeptin) and incubated at 37° C. for 30 min. […] After phase separation, one equivalent of the upper phase (1 ml) was removed and the radioactivity was determined by liquid scintillation measurement.
Substances were normally tested in four independent mixtures. The inhibition of the HSL enzymatic activity by a test substance was determined by comparison with an uninhibited control reaction. The IC50 was calculated via an inhibition plot with at least 10 concentrations of the test substance. The data was analyzed using the software package GRAPHIT, Elsevier-BIOSOFT.

| SMILES | melting point [°C] | IC50 [1] [nM] |
| --- | --- | --- |
| COc1nn(-c2ccc(NS(=O)(=O)c3ccc(Cl)cc3)c(C)c2)c(=O)o1 [Example 37, 5-Methoxy-3-(4-(4-chlorophenylsulfonylamino)-3-methylphenyl)-3H-(1,3,4)oxadiazol-2-one] | 147 | 1000 |
| CCCCCCCc1ccc(C(=O)Nc2ccc(-n3nc(OC)oc3=O)cc2)cc1 [Example 33, 5-Methoxy-3-(4-(4-heptylbenzoylamino)phenyl)-3H-(1,3,4)oxadiazol-2-one] | 155 | 200 |
| CCCCc1ccc(S(=O)(=O)Nc2ccc(-n3nc(OC)oc3=O)cc2)cc1 [Example 34, 5-Methoxy-3-(4-(4-butylphenylsulfonylamino)phenyl)-3H-(1,3,4)oxadiazol-2-one] | 135 | 1000 |

More lines, now with the values ahead:

| melting point [°C] | IC50 [1] [nM] | SMILES |
| --- | --- | --- |
| 112 | 1000 | COc1nn(-c2ccc(NC(=O)OCc3ccccc3)cc2C)c(=O)o1 [Example 65, 5-Methoxy-3-(2-methyl-4-benzyloxycarbonylaminophenyl)-3H-(1,3,4)oxadiazol-2-one] |
| 99 | 1000 | COc1nn(-c2cccc(OCc3ccc(F)cc3)c2[N+](=O)[O-])c(=O)o1 [Example 22, 5-Methoxy-3-(3-(4-fluorobenzyloxy)-2-nitrophenyl)-3H-(1,3,4)oxadiazol-2-one] |
| 135 | 20 | CCCCCCCc1ccc(C(=O)Nc2ccc(-n3nc(OC)oc3=O)c(Cl)c2)cc1 [Example 71, 5-Methoxy-3-(2-chloro-4-(4-heptylbenzoylamino)phenyl)-3H-(1,3,4)oxadiazol-2-one] |
